This is an account of results in patent US9011839B2, “Anti-inflammatory and anti-vaginitis food composition and pharmaceutical composition containing Lactobacillus” (Glac Biotech Co., Ltd., priority 2010, dated 2015).

One assay has as its system vaginitis patients. To be noted: Barrons et al (2008); tampons, 4-8 weeks; cited from earlier work.
Assay [1] deals with human dendritic cells. The experiment in a line: Inhibition of TNF-α secretion using an in vitro assay platform of dendritic cells. The class given is cell-based. To be noted: human dendritic cells co-cultured 48 hours with heated LAB (1:10); supernatant ELISA; Mean±SD. Here is the method:
A. Inhibition of TNF-α Secretion Using an In Vitro Assay Platform of Dendritic Cells.
(§1) The inhibition assay for Th17 immune response is implemented by measuring TNF-α secretion after co-culture with the above-mentioned lactic acid bacteria. The assay procedures are listed as followings: • 1. 200 mL human blood are obtained from healthy donors. • 2. 1:1 blood isolates (Ficoll-paque) and blood are centrifuged at 400 g in 18-20° C. for 30-40 min. • 3. Cells obtained from human PBMC (Peripheral Blood Mononuclear Cell) layer are washed with buffer solution 2-3 times and suspended with appropriate culture medium such as RPMI-1640. • 4. CD14^+ monocytes are purified from PBMC cells by using CD14^+ microbeads (MiniMACS system). • 5. Cells are differentiated into dendritic cells after incubating for 6-7 days by stimulating with IL-4 and GM-CSF and differentiated dendritic cells are then collected. • 6. The lactic acid bacteria strain is activated 3 days before co-culture and is then heated for thermal death at 100° C. for 30 min. • 7. The dendritic cells and the heated lactic acid bacteria strain (1:10) are co-cultured for 48 hours. • 8. The supernatant of the cell culture medium is collected and used for measuring TNF-α amount by using ELISA (enzyme-linked-immunosorbent serologic assay).
The statistic results (Mean±SD) of data are analyzed in Table 3. […]
A general note: ELISA stands for enzyme-linked immunosorbent assay.

Assay [2] has as its system human dendritic cells. The experiment in a line: Stimulation of IL-10 secretion using an in vitro assay platform of dendritic cells. The class given is cell-based. As to conditions: human dendritic cells co-cultured 48 hours with heated LAB (1:10); supernatant ELISA; Mean±SD. How it is done:
B. Stimulation of IL-10 Secretion Using an In Vitro Assay Platform of Dendritic Cells.
as §1, with “In order to measure the increased amount of IL-10 secretion, human dendritic cells and” for “The inhibition assay for Th17 immune response is implemented by measuring TNF-α secretion after co-culture with”, “bacteria are co-cultured and the secretion of IL-10 is then measured so as to determine the promoting effect on inhibiting inflammatory cells from secreting cytokine.” for “bacteria.”, “donors;” for “donors.”, “The supernatant of the cell culture medium is collected and used for measuring TNF-α amount by using ELISA (enzyme-linked-immunosorbent serologic assay).” left out
The statistic results (Mean±SD) of data are analyzed in Table 4. […]

Consider `CC(=O)O` [acetic acid], for which, in the assay with vaginitis patients, the “vaginitis patients revealing improvement” value is 38%.

Consider Lipopolysaccharide [LPS], for which the “TNF-α Secretion” value with human dendritic cells [1] worked out at 1521 ± 37 pg/mL.

With Phytohemagglutinin [PHA], in the assay with human dendritic cells [2], the “IL-10 Secretion” value was found to be 9145 ± 118 pg/mL.
